Test results as given in PubChem BioAssay AID2060344 (Molecular Pharmacology Branch, DTP, NCI, 2025).

Test system: SK-MEL-2 multi-cell spheroids, viability
Test: Anticancer human tumor SK-MEL-2 cell line growth inhibition [TAK];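 also: spheroids exposed to drugs for seven days before readout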;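 as to viability, T/C: percent of DMSO vehicle control luminescence so 100% = untreated viability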
Settings: for IC50: curve of first compound; for viability, T/C: stronger effect = lower value
Procedure, shortened: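 Drug combinations, each paired with TAK-243 or ipatasertib, were tested on multi-cell spheroids of 60% malignant cells, 25% HUVEC and 15% hMSC. Top concentrations were at or near the clinical Cmax (10 microM if undetermined), decreasing by half-log; viability is given as % test/control.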

[1] = second compound 0.3 µM, first compound 0.0316 µM
[2] = second compound 0.3 µM, first compound 0.1 µM
[3] = second compound 0.3 µM, first compound 0.316 µM
[4] = second compound 0.3 µM, first compound 1 µM
[5] = second compound 0.949 µM, first compound 0.0316 µM
[6] = second compound 0.949 µM, first compound 0.1 µM
[7] = second compound 0.949 µM, first compound 0.316 µM
[8] = second compound 0.949 µM, first compound 1 µM
[9] = second compound 3 µM, first compound 0.0316 µM
[10] = second compound 3 µM, first compound 0.1 µM
[11] = second compound 3 µM, first compound 0.316 µM
[12] = second compound 3 µM, first compound 1 µM
[13] = second compound 9.49 µM, first compound 0.0316 µM
[14] = second compound 9.49 µM, first compound 0.1 µM
[15] = second compound 9.49 µM, first compound 0.316 µM
[16] = second compound 9.49 µM, first compound 1 µM
[17] = second compound 30 µM, first compound 0.0316 µM
[18] = second compound 30 µM, first compound 0.1 µM
[19] = second compound 30 µM, first compound 0.316 µM
[20] = second compound 30 µM, first compound 1 µM

Structure (SMILES) | IC50 (second compound 0.3 µM) [nM] | IC50 (second compound 0.949 µM) [nM] | IC50 (second compound 3 µM) [nM] | IC50 (second compound 9.49 µM) [nM] | IC50 (second compound 30 µM) [nM] | viability, T/C [1] [%] | viability, T/C [2] [%] | viability, T/C [3] [%] | viability, T/C [4] [%] | viability, T/C [5] [%] | viability, T/C [6] [%] | viability, T/C [7] [%] | viability, T/C [8] [%] | viability, T/C [9] [%] | viability, T/C [10] [%] | viability, T/C [11] [%] | viability, T/C [12] [%] | viability, T/C [13] [%] | viability, T/C [14] [%] | viability, T/C [15] [%] | other results
COc1c(OCCCN2CCOCC2)ccc2c3n(c(=NC(=O)c4cnc(N)nc4)nc12)CCN3 + CC(C)NCC(C(=O)N1CCN(c2ncnc3c2C(C)CC3O)CC1)c1ccc(Cl)cc1 | 51.3 | 29.4 | 20.8 | 14.5 | 9.89 | 50.6 | 45.6 | 30.9 | 19.5 | 47.1 | 38.4 | 27.6 | 21 | 40.2 | 34.2 | 26.1 | 19.5 | 37 | 31.4 | 24.6 | viability, T/C (second compound 0.3 µM, first compound 0.00316 µM): 92%; viability, T/C (second compound 0.3 µM, first compound 0.01 µM): 72.5%; viability, T/C (second compound 0.949 µM, first compound 0.00316 µM): 81%; viability, T/C (second compound 0.949 µM, first compound 0.01 µM): 65%; viability, T/C (second compound 3 µM, first compound 0.00316 µM): 68.5%; viability, T/C (second compound 3 µM, first compound 0.01 µM): 62.9%; viability, T/C (second compound 9.49 µM, first compound 0.00316 µM): 59.8%; viability, T/C (second compound 9.49 µM, first compound 0.01 µM): 57.6%; viability, T/C [16]: 21.1%; viability, T/C (second compound 30 µM, first compound 0.00316 µM): 52.5%; viability, T/C (second compound 30 µM, first compound 0.01 µM): 50.8%; viability, T/C [17]: 41.6%; viability, T/C [18]: 28.8%; viability, T/C [19]: 21.1%; viability, T/C [20]: 16.3%
Cc1nc(NC(=O)N2CCCC2C(N)=O)sc1-c1ccnc(C(C)(C)C(F)(F)F)c1 (stereo not given) + CC(C)NCC(C(=O)N1CCN(c2ncnc3c2C(C)CC3O)CC1)c1ccc(Cl)cc1 | > 10000 | > 10000 | > 10000 | > 10000 | 218 | 97 | 84.7 | 70.5 | 79.8 | 85 | 74.7 | 64.8 | 65.8 | 66.1 | 67.3 | 52.8 | 58.8 | 56 | 56.4 | 48.7 | viability, T/C (second compound 0.3 µM, first compound 3.16 µM): 75.3%; viability, T/C (second compound 0.3 µM, first compound 10 µM): 55.6%; viability, T/C (second compound 0.949 µM, first compound 3.16 µM): 59.5%; viability, T/C (second compound 0.949 µM, first compound 10 µM): 49.4%; viability, T/C (second compound 3 µM, first compound 3.16 µM): 57.3%; viability, T/C (second compound 3 µM, first compound 10 µM): 51.2%; viability, T/C [16]: 51.1%; viability, T/C (second compound 9.49 µM, first compound 3.16 µM): 55.9%; viability, T/C (second compound 9.49 µM, first compound 10 µM): 49.2%; viability, T/C [17]: 52.4%; viability, T/C [18]: 55.8%; viability, T/C [19]: 46.2%; viability, T/C [20]: 43.7%; viability, T/C (second compound 30 µM, first compound 3.16 µM): 50.3%; viability, T/C (second compound 30 µM, first compound 10 µM): 40%
